Experimental data as given in patent publication US9988400B2 (Genentech, Inc., priority 2013, dated 2018).

Molecular target: T1, HEK cells stably transfected with tetracycline inducible hNR1 and hNR2A (Homo sapiens, UniProt Q05586+Q12879)
T1 construct: expressed in transfected cells; host or cells: HEK cells, stably transfected, tetracycline/doxycycline inducible
Experiment: Assay 1: Cell-Based Assay, cytosolic calcium response to positive allosteric modulators (with 30 μM glycine and 300 nM L-glutamate, EC30)
Conditions: Table 2; for Max %: responses scaled relative to 100 μM L-glutamate maximal response (100%) and 0 μM L-glutamate (0%); for EC50: cytosolic calcium response, with 30 μM glycine and 300 nM L-glutamate (EC30), — = no plateau was reached
How it was run: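 Cells induced 24 h with 7.5 μg mL^−1 doxycycline plus 500 μM (+)-ketamine, loaded 60 min at 37 °C with calcium dye in Mg-free HBSS (1.8 mM Ca, probenecid, 10 μM (+)-ketamine, pH 7.15). Peak RFU over 5 min after compound addition, scaled to 100 μM L-glutamate (100%) and 0 μM (0%); four-parameter Hill fit for EC50, max % if no plateau.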

T1 sequence (Q12879 23-1464, other chains not shown): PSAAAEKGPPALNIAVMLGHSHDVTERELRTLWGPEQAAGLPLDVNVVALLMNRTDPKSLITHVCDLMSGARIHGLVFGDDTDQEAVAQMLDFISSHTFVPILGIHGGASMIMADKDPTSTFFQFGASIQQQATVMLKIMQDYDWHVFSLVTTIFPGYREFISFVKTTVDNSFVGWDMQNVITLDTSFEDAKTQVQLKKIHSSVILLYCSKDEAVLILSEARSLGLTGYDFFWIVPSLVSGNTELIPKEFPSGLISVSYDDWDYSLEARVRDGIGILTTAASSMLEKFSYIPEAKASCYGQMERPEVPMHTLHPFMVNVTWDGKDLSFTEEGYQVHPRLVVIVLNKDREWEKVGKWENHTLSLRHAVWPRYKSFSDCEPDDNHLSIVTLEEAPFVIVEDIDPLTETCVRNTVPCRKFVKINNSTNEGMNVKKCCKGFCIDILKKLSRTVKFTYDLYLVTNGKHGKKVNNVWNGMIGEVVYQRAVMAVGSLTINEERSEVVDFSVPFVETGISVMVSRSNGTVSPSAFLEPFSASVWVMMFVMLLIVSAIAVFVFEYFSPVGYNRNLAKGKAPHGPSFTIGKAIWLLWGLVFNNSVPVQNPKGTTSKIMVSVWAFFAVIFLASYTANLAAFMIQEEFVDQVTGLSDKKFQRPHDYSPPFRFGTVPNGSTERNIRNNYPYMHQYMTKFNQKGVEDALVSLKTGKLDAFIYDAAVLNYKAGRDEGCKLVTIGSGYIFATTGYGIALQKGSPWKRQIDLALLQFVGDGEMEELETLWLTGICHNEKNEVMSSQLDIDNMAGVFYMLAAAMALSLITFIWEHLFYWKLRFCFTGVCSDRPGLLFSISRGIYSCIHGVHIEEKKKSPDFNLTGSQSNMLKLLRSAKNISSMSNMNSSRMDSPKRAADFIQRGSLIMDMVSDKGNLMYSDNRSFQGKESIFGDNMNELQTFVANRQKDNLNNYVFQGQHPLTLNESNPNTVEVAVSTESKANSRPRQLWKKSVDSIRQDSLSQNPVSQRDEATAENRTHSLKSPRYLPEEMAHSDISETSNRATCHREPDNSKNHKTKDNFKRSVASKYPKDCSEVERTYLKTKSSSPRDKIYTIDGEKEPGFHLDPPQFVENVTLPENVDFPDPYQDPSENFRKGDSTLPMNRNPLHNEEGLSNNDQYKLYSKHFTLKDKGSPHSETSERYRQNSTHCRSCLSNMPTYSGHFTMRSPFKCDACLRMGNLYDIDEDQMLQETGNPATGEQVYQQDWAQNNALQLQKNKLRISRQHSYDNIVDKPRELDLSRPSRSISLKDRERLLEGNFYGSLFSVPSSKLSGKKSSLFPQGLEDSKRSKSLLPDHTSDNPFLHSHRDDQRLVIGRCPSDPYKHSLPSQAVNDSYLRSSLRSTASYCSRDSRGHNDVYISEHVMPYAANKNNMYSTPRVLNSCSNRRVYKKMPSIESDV

Row | Compound | Max % | EC50
1 | Cc1sc2nc(COc3ccc(F)cc3)cc(=O)n2c1C1CC1C(C)(C)O (centres unmarked) [Example 4.34, 7-(4-Fluorophenoxymethyl)-3-[2-(2-hydroxypropan-2-yl)cyclopropyl]-2-methyl-5H-[1.3]thiazolo[3,2-a]pyrimidin-5-one] | 49.2% | –
2 | CCN(Cc1cc(=O)n2c(-c3cncnc3)c(C)sc2n1)c1ccc(F)cc1 [Example 5.1, 7-[(N-ethyl-4-fluoro-anilino)methyl]-2-methyl-3-pyrimidin-5-yl-thiazolo[3,2-a]pyrimidin-5-one] | 145.1% | 0.56 µM
3 | Cc1sc2nc(CN(C)c3ccc(F)cc3)cc(=O)n2c1-c1cncnc1 [Example 5.2, 7-(((4-fluorophenyl)(methyl)amino)methyl)-2-methyl-3-(pyrimidin-5-yl)-5H-thiazolo[3,2-a]pyrimidin-5-one] | 148% | 5.7 µM
4 | Cc1sc2nc(CN(CC(F)(F)F)c3ccc(F)cc3)cc(=O)n2c1-c1cncnc1 [Example 5.3, 7-(((4-fluorophenyl)(2,2,2-trifluoroethyl)amino)methyl)-2-methyl-3-(pyrimidin-5-yl)-5H-thiazolo [3,2-a]pyrimidin-5-one] | 177% | 2.2 µM
5 | CCN(Cc1cc(=O)n2c(-c3cncnc3)c(C)sc2n1)c1ccc(F)c(F)c1 [Example 5.4, 7-(((3,4-difluorophenyl)(ethyl)amino)methyl)-2-methyl-3-(pyrimidin-5-yl)-5H-thiazolo[3,2-a]pyrimidin-5-one] | 172% | 0.956 µM
6 | CCN(Cc1cc(=O)n2c(-c3cncnc3)c(C)sc2n1)c1cccc(F)c1 [Example 5.5, 7-((ethyl(3-fluorophenyl)amino)methyl)-2-methyl-3-(pyrimidin-5-yl)-5H-thiazolo[3,2-a]pyrimidin-5-one] | 168% | 2.4 µM
7 | Cc1sc2nc(CN(CC(F)F)c3ccc(F)cc3)cc(=O)n2c1-c1cncnc1 [Example 5.6, 7-(((2,2-difluoroethyl)(4-fluorophenyl)amino)methyl)-2-methyl-3-(pyrimidin-5-yl)-5H-thiazolo[3,2-a] pyrimidin-5-one] | 164% | 0.766 µM
8 | CCN(Cc1cc(=O)n2c(-c3nccs3)c(C)sc2n1)c1ccc(F)cc1 [Example 5.8, 7-((ethyl(4-fluorophenyl)amino)methyl)-2-methyl-3-(thiazol-2-yl)-5H-thiazolo[3,2-a]pyrimidin-5-one] | 156% | 0.669 µM
9 | CCN(Cc1cc(=O)n2c(-c3cccs3)c(C)sc2n1)c1ccc(F)cc1 [Example 5.9, 7-((ethyl(4-fluorophenyl)amino)methyl)-2-methyl-3-(thiophen-2-yl)-5H-thiazolo[3,2-a]pyrimidin-5-one] | 143% | 1.3 µM
10 | CCN(Cc1cc(=O)n2c(-c3cncnc3)c(C)sc2n1)c1cccc(C#N)c1 [Example 5.10, 3-(ethyl((2-methyl-5-oxo-3-(pyrimidin-5-yl)-5H-thiazolo [3,2-a]pyrimidin-7-yl)methyl)amino)benzonitrile] | 133% | 18 µM
11 | CCN(Cc1cc(=O)n2c(-c3cccnc3N)c(C)sc2n1)c1ccc(F)cc1 [Example 5.11, 3-(2-aminopyridin-3-yl)-7-((ethyl(4-fluorophenyl)amino)methyl)-2-methyl-5H-thiazolo[3,2-a]pyrimidin-5-one] | 118% | 2.9 µM
12 | CCN(Cc1cc(=O)n2c(-c3cncnc3)c(C)sc2n1)c1ccccn1 [Example 5.12, 7-((ethyl(pyridine-2-yl)amino)methyl)-2-methyl-3-(pyrimidin-5-yl)-5H-thiazolo[3,2-a]pyrimidin-5-one] | 106% | –
13 | Cc1sc2nc(CNc3ccc(F)cc3)cc(=O)n2c1-c1cncnc1 [Example 5.13, 7-((4-fluorophenylamino)methyl)-2-methyl-3-(pyrimidin-5-yl)-5H-thiazolo[3,2-a]pyrimidin-5-one] | 87.9% | –
14 | CCCCc1c(C)sc2nc(CN(CC)c3ccc(F)cc3)cc(=O)n12 [Example 5.14, 3-butyl-7-((ethyl(4-fluorophenyl)amino)methyl)-2-methyl-5H-thiazolo[3,2-a]pyrimidin-5-one] | 111% | 7.5 µM
15 | CCN(Cc1cc(=O)n2c(-c3cncnc3)c(C3CC3)sc2n1)c1ccc(F)cc1 [Example 5.15, 2-cyclopropyl-7-[(N-ethyl-4-fluoro-anilino)methyl]-3-pyrimidin-5-yl-thiazolo[3,2-a]pyrimidin-5-one] | 144% | 7 µM
16 | CCc1sc2nc(CN(CC)c3ccc(F)cc3)cc(=O)n2c1-c1cncnc1 [Example 5.16, 2-ethyl-7-((ethyl(4-fluorophenyl)amino)methyl)-3-(pyrimidin-5-yl)-5H-thiazolo[3,2-a]pyrimidin-5-one] | 157% | 2.5 µM
17 | CCN(Cc1cc(=O)n2c(-c3cscn3)c(C)sc2n1)c1ccc(F)cc1 [Example 5.20, 7-[(N-ethyl-4-fluoro-anilino)methyl]-2-methyl-3-thiazol-4-yl-thiazolo[3,2-a]pyrimidin-5-one] | 157% | 0.815 µM

Row | Compound | Max % | EC50
18 | CCN(Cc1cc(=O)n2c(-c3cccnc3)c(C)sc2n1)c1ccc(F)cc1 [Example 5.21, 7-[(N-ethyl-4-fluoro-anilino)methyl]-2-methyl-3-(3-pyridyl)thiazolo[3,2-a]pyrimidin-5-one] | 141% | 0.584 µM
19 | CCN(Cc1cc(=O)n2c(-c3ccccc3)c(C)sc2n1)c1ccc(F)cc1 [Example 5.22, 7-[(N-ethyl-4-fluoro-anilino)methyl]-2-methyl-3-phenyl-thiazolo[3,2-a]pyrimidin-5-one] | 142% | 1.6 µM
20 | CCN(Cc1cc(=O)n2c(C)c(C)sc2n1)c1ccc(F)cc1 [Example 5.23, 7-[(N-ethyl-4-fluoro-anilino)methyl]-2,3-dimethyl-thiazolo[3,2-a]pyrimidin-5-one] | 135% | 2.6 µM
21 | CCN(Cc1cc(=O)n2c(-c3cncc(F)c3)c(C)sc2n1)c1ccc(F)cc1 [Example 5.24, 7-[(N-ethyl-4-fluoro-anilino)methyl]-3-(5-fluoro-3-pyridyl)-2-methyl-thiazolo[3,2-a]pyrimidin-5-one] | 142% | 0.731 µM
22 | CCN(Cc1cc(=O)n2c(-c3cccnc3F)c(C)sc2n1)c1ccc(F)cc1 [Example 5.25, 7-[(N-ethyl-4-fluoro-anilino)methyl]-3-(2-fluoro-3-pyridyl)-2-methyl-thiazolo[3,2-a]pyrimidin-5-one] | 141% | 0.7 µM
23 | CCN(Cc1cc(=O)n2c(C3CC3)c(C)sc2n1)c1ccc(F)cc1 [Example 5.26, 3-cyclopropyl-7-[(N-ethyl-fluoro-anilino)methyl]-2-methyl-thiazolo[3,2-a]pyrimidin-5-one] | 149% | 0.563 µM
24 | CCN(Cc1cc(=O)n2c(-c3cnccn3)c(C)sc2n1)c1ccc(F)cc1 [Example 5.27, 7-[(N-ethyl-4-fluoro-anilino)methyl]-2-methyl-3-pyrazin-2-yl-thiazolo[3,2-a]pyrimidin-5-one] | 139% | 1.1 µM
25 | C=C(C)c1c(C)sc2nc(CN(CC)c3ccc(F)cc3)cc(=O)n12 [Example 5.29, 7-[(N-ethyl-4-fluoro-anilino)methyl]-3-isopropenyl-2-methyl-thiazolo[3,2-a]pyrimidin-5-one] | 147% | 0.445 µM
26 | CCN(Cc1cc(=O)n2c(-c3ccnnc3)c(C)sc2n1)c1ccc(F)cc1 [Example 5.30, 7-[(N-ethyl-4-fluoro-anilino)methyl]-2-methyl-3-pyridazin-4-yl-thiazolo[3,2-a]pyrimidin-5-one] | 132% | 4.3 µM
27 | CCN(Cc1cc(=O)n2c(-c3cncc(Cl)c3)c(C)sc2n1)c1ccc(F)cc1 [Example 5.31, 3-(5-chloro-3-pyridyl)-7-[(N-ethyl-4-fluoro-anilino)methyl]-2-methyl-thiazolo[3,2-a]pyrimidin-5-one] | 132% | 2.7 µM
28 | CCN(Cc1cc(=O)n2c(-c3ccncc3)c(C)sc2n1)c1ccc(F)cc1 [Example 5.32, 7-[(N-ethyl-4-fluoro-anilino)methyl]-2-methyl-3-(4-pyridyl)thiazolo[3,2-a]pyrimidin-5-one] | 123% | 4.3 µM
29 | CCN(Cc1cc(=O)n2c(-c3cnn(C)c3)c(C)sc2n1)c1ccc(F)cc1 [Example 5.33, 7-[(N-ethyl-4-fluoro-anilino)methyl]-2-methyl-3-(1-methylpyrazol-4-yl)thiazolo[3,2-a]pyrimidin-5-one] | 120% | 4.2 µM
30 | CCN(Cc1cc(=O)n2c(-c3cn[nH]c3)c(C)sc2n1)c1ccc(F)cc1 [Example 5.34, 7-[(N-ethyl-4-fluoro-anilino)methyl]-2-methyl-3-(1H-pyrazol-4-yl)thiazolo[3,2-a]pyrimidin-5-one] | 118% | 2.8 µM
31 | CCN(Cc1cc(=O)n2c(-c3cncc(C#N)c3)c(C)sc2n1)c1ccc(F)cc1 [Example 5.35, 5-[7-[(N-ethyl-4-fluoro-anilino)methyl]-2-methyl-5-oxo-thiazolo[3,2-a]pyrimidin-3-yl]pyridine-3-carbonitrile] | 136% | 2.7 µM
32 | CCN(Cc1cc(=O)n2c(-c3cncc(C(F)(F)F)c3)c(C)sc2n1)c1ccc(F)cc1 [Example 5.36, 7-[(N-ethyl-4-fluoro-anilino)methyl]-2-methyl-3-[5-(trifluoromethyl)-3-pyridyl]thiazolo[3,2-a]pyrimidin-5-one] | 61.3% | –
33 | CCN(Cc1cc(=O)n2c(-c3ncco3)c(C)sc2n1)c1ccc(F)cc1 [Example 5.37, 7-[(N-ethyl-4-fluoro-anilino)methyl]-2-methyl-3-oxazol-2-yl-thiazolo[3,2-a]pyrimidin-5-one] | 152% | 0.515 µM
